Results on 3 compounds are retold here after the NIST ThermoML archive (doi:10.1016/j.jct.2011.10.028).

± gives the expanded uncertainty stated by the source.

A short description of series [1]: relative permittivity at zero frequency (dimensionless). Conditions: 300.15 K; 101.33 kPa; Liquid; impedance analyzer.
For series [2] the following is noted: 300.15 K; 101.33 kPa; Liquid; Pycnometric method.
Series [3] can be described thus: refractive index (Na D-line) (dimensionless). Conditions: 300.15 K; 101.33 kPa; Liquid; Standard Abbe refractometry.

By mass density is commonly meant the mass of a sample divided by its volume. As a reminder, the refractive index is the speed of light in vacuum divided by its phase velocity in the sample. Take `CNc1ccccc1` [N-methylaniline]: the “relative permittivity at zero frequency” value in series [1] worked out at 5.878 ± 0.001. In addition, the mass density in series [2] is recorded as 979.8 ± 0.6 kg/m3. Also, the refractive index in series [3] came out at 1.566 ± 0.001.
For the compound `CC(C)O` [propan-2-ol], the “relative permittivity at zero frequency” value in series [1] turned out to be 18.562 ± 0.001. Also, the mass density in series [2] is reported as 779.2 ± 0.4 kg/m3. For the same compound, the refractive index in series [3] came out at 1.383 ± 0.001.
Turning to `CCCO` [propan-1-ol], in series [1], the “relative permittivity at zero frequency” value is 20.678 ± 0.001. For the same compound, the mass density in series [2] is listed as 798.5 ± 0.4 kg/m3. In series [3], the refractive index worked out at 1.391 ± 0.001.
